ChEMBL document CHEMBL1201862, “PubChem BioAssay data set” (2004)
The source made the active and inactive calls. For most assays here, no stated cut-off is given here; in the data, actives have a measured IC50 and inactives only a lower limit.

Experiments:
[1] = target: T1, Sentrin-specific protease 6 (Homo sapiens, UniProt Q9GZR1); assay type: functional
T1 sequence (Q9GZR1 whole entry): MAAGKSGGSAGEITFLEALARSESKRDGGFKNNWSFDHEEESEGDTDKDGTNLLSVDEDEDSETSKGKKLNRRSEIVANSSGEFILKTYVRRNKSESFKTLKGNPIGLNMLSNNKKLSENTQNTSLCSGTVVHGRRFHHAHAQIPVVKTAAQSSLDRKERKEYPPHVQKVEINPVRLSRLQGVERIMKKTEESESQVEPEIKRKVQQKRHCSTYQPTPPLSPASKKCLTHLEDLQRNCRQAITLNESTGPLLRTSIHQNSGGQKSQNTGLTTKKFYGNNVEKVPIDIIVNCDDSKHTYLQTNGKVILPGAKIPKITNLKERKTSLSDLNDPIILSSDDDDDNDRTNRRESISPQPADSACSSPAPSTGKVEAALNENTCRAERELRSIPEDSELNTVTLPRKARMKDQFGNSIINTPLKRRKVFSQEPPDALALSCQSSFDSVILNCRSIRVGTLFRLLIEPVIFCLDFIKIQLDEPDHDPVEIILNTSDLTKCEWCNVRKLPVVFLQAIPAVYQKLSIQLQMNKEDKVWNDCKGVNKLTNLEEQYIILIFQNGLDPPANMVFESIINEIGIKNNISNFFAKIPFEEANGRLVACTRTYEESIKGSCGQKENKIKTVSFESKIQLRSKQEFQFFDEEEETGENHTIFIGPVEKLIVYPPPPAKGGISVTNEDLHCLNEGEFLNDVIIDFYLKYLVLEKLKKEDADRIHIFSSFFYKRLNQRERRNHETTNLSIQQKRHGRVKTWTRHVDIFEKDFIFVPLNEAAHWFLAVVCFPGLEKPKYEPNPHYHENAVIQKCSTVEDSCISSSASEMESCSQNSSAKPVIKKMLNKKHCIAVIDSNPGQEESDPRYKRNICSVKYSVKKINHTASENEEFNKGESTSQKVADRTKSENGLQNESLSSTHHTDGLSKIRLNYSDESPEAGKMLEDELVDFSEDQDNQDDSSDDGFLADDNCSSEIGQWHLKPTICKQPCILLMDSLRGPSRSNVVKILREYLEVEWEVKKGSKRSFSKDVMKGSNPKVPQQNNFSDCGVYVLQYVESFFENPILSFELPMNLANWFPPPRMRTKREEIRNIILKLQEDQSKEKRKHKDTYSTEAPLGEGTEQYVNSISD

[2] = target: T2, Heat shock factor protein 1 (Mus musculus, UniProt P38532); assay: inhibition of MG132-induced HSE-luciferase signal, confirmation, cell-based, NIH3T3, luminescence, dose retest (AID 2382); assay type: functional;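 further: NIH3T3 fibroblasts with HSF1-driven luciferase reporter stressed by proteasome inhibitor MG132; luminescence from HSF1-driven luciferase expression after 8 hours of MG132 stress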
T2 sequence (P38532 whole entry): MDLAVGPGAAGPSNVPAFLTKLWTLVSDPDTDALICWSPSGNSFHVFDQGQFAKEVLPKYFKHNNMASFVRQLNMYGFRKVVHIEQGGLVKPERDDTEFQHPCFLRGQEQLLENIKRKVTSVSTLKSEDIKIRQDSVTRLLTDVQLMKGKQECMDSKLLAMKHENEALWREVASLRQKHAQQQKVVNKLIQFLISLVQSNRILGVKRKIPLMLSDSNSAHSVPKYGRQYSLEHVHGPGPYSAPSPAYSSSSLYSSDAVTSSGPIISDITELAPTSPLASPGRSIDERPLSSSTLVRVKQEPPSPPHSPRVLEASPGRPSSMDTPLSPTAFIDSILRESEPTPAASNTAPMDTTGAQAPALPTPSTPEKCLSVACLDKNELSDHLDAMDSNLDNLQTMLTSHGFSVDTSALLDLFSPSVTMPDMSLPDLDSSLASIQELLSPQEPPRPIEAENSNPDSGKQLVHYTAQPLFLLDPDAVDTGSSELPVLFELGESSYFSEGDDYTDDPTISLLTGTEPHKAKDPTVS

[3] = target: T3, Sentrin-specific protease 8 (Homo sapiens, UniProt Q96LD8); assay type: functional;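 further: luminescence read-out of SENP8 inhibition, dose-response confirmation following an ultra-high-throughput screen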
T3 sequence (Q96LD8 whole entry): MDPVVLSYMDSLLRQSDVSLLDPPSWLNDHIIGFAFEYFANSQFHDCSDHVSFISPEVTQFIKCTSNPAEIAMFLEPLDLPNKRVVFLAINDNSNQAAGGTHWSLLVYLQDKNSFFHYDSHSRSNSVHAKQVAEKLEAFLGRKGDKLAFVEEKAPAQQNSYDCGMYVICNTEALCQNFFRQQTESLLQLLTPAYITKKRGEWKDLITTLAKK

[4] = target: T1, Sentrin-specific protease 6; assay: SAR Analysis of small molecule inhibitors of Sentrin-specific protease 6 (SENP6) using a Luminescent assay. [Related pubchem assays (depositor defined):AID2582, AID2599]; assay type: functional
Caspase-3 [5] = target: T4, Caspase-3 (Homo sapiens, UniProt P42574); assay type: functional
T4 sequence (P42574 whole entry): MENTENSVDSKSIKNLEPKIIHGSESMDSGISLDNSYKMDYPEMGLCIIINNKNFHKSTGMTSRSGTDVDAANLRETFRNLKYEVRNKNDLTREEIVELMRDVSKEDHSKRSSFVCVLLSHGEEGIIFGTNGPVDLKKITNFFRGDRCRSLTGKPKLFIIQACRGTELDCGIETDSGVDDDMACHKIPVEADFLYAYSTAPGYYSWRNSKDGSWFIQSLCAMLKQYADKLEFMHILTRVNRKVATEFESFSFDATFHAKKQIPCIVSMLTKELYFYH

[6] = target: T5, Sentrin-specific protease 7 (Homo sapiens, UniProt Q9BQF6); assay: SENP7 protease inhibitors, SAR follow-up, biochemical, luminescence (AID 504497); assay type: functional
T5 sequence (Q9BQF6 whole entry): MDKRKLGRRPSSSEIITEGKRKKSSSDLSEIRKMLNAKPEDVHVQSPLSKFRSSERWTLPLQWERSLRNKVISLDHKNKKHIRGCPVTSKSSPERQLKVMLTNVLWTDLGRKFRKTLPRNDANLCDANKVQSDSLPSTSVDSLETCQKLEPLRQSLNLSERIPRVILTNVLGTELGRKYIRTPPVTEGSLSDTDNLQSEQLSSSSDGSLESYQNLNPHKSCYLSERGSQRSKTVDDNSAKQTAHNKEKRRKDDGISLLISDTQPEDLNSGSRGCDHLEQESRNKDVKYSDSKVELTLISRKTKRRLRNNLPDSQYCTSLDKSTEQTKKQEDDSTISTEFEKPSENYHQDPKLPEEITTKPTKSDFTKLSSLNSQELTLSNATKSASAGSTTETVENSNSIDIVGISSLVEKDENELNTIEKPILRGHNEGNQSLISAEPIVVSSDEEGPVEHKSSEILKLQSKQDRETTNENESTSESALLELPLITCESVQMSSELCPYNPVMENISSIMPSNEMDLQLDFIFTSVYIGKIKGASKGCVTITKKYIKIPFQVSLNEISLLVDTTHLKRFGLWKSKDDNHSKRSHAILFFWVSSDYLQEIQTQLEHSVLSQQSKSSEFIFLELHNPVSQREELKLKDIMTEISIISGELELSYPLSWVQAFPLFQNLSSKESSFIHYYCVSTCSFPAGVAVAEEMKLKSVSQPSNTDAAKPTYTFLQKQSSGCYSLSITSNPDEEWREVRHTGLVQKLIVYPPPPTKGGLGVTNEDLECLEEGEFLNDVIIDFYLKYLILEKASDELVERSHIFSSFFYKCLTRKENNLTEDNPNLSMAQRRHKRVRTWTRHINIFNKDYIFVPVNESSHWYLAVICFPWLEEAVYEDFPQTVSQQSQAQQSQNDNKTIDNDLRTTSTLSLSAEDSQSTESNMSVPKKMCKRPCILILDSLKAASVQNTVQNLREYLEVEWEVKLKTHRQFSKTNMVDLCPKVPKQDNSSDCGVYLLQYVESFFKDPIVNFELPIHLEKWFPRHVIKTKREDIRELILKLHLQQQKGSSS

[7] = target: T3, Sentrin-specific protease 8; assay: SENP8 protease inhibitors, SAR follow-up, biochemical, luminescence (AID 504501); assay type: functional
[8] = target: T5, Sentrin-specific protease 7; assay type: functional
HT-1080 = assay: cytotoxicity in HT1080 fibrosarcoma cells, cell-based, fluorescence readout (AID 620); assay type: functional; conditions: Homo sapiens
Caspase-3 [9] = target: T4, Caspase-3; assay: SAR Analysis of small molecule inhibitors of Sentrin-specific proteases (SENPs) using a Caspase-3 Selectivity assay. [Related pubchem assays (depositor defined):AID2540, AID2599, AID434973, AID489001]; assay type: functional
[10] = target: Luciferin 4-monooxygenase (Photinus pyralis, UniProt P08659); assay: Counter Screen for Luciferase-based Assay Positives. [Related pubchem assays: 620, 618, 411 ]
Chain of Luciferin 4-monooxygenase (P08659 whole entry): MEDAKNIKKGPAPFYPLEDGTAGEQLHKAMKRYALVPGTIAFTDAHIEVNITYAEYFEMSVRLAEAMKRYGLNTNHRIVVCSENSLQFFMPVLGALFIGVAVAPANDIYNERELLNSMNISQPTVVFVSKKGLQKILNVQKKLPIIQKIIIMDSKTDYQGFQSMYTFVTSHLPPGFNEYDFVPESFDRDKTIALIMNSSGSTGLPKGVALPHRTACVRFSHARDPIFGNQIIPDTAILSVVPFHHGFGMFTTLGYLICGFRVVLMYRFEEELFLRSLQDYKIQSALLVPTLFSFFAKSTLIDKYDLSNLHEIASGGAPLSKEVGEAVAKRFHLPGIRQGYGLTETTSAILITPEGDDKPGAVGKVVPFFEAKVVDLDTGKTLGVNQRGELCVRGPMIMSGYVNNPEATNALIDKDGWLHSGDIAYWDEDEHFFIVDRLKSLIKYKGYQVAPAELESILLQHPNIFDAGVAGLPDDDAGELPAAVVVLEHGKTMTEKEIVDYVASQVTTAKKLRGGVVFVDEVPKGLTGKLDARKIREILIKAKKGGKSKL

Row | Compound | IC50 [1] | EC50 [2] | IC50 [3] | IC50 [4] | IC50 (Caspase-3 [5]) | IC50 [6] | IC50 [7] | IC50 [8] | EC50 (HT-1080) | IC50 (Caspase-3 [9]) | EC50 [10]
1 | CC(=O)N(/N=C1\Sc2ccccc2C1=O)c1ccc(C)cc1C | 7.1 µM (active) | < 0.16 µM (active) | 86.8 µM (active) | 5.49 µM (active) | 33 µM (active) | 23.3 µM (active) | 13 µM (active) | 21.5 µM (active) | > 50 µM (not active) | 7.42 µM (active) | < 0.2 µM (active)
2 | N#Cc1ccc(-c2nc(/C=C/c3ccc(F)cc3)no2)cc1 | – | – | – | > 99 µM (inactive) | – | > 99 µM (inactive) | > 99 µM (inactive) | – | – | > 99 µM (inactive) | –
